From publication PMC10254843, “Discovery of New 2-Phenylamino-3-acyl-1,4-naphthoquinones as Inhibitors of Cancer Cells Proliferation: Searching for Intra-Cellular Targets Playing a Role in Cancer Cells Survival” (Molecules, 2023)

Legend:
[1] = tested on: MCF-7 (mammary cancer cells); assay: MTT cell survival assay, MCF-7 mammary cancer cells; type: cell-based; conditions: Homo sapiens, MCF7; MTT test; cells incubated at 37 °C for 48 h (Table 1 footnote); mean ± SEM, n = 3
Protocol: (§1) Human cancer cell lines from bladder (T24), prostate (DU–145), breast (MCF–7) and non-tumor HEK-293 cells were obtained from the American Type Culture Collection (ATCC, Manassas, VA, USA). The cultures were maintained at a density of 1–2 × 10^5 cells/mL and the medium was changed at 48- and 72-h intervals. They were cultured in high-glucose Dulbecco’s modified Eagle medium (Gibco, Grand Island, NY, USA) supplemented with 10% fetal calf serum, penicillin (100 U/mL) and streptomycin (100 μg/mL). All cultures were kept at 37 °C in 95% air/5% CO2 at 100% humidity. Phosphate-buffered saline (PBS) was purchased from Gibco. Cells were incubated at the indicated times at 37 °C with or without compounds 1–14 at various concentrations.
(§2) The cytotoxicity of the compounds 1–14 was assessed by following the reduction of MTT (3-(4,5-Dimethylthiazol-2-yl)-2,5-diphenyltetrazolium bromide) to formazan blue. […] Doxorubicin was used as a standard chemotherapeutic agent (positive control). Cells were washed twice with warm PBS and further incubated with MTT (0.5 mg/mL) for 2 h at 37 °C. Blue formazan crystals were solubilized by adding 100 µL DMSO/well, and the optical density of colored solutions was subsequently read at 550 nm in a microplate reader Tecan infinite M200 Pro (Männedorf, Switzerland). The compounds 1–14 were dissolved in DMSO (stock solution at 100 mM) and further diluted to be evaluated at the following concentrations: 0 μM, 1 μM, 10 μM, 20 μM, 40 μM, 60 μM, 80 μM and 100 μM. Results are expressed as % of MTT reduction compared to untreated control conditions. The IC50 values were calculated using the GraphPad Prism 8.0.2 software (San Diego, CA, USA).

[2] = tested on: DU-145 (prostate cancer cells); assay: MTT cell survival assay, DU-145 prostate cancer cells; type: cell-based; conditions: Homo sapiens, MTT test, cells incubated at 37 °C for 48 h (Table 1 footnote), mean ± SEM, n = 3
Protocol: as §1, §2

[3] = tested on: HEK-293 cells/tumour cells; assay: Mean selective index, HEK-293 vs tumour cells; type: cell-based, human; conditions: MSI = IC50 values HEK-293 cells/IC50 values tumour cells
Protocol: (§3) The cytotoxicity of the compounds 1–14 was assessed by following the reduction of MTT (3-(4,5-Dimethylthiazol-2-yl)-2,5-diphenyltetrazolium bromide) to formazan blue. Cells were seeded into 96-well plates at a density of 10,000 cells/well for 24 h and then they were further incubated for 24 h with or without the quinones. Doxorubicin was used as a standard chemotherapeutic agent (positive control). Cells were washed twice with warm PBS and further incubated with MTT (0.5 mg/mL) for 2 h at 37 °C. Blue formazan crystals were solubilized by adding 100 µL DMSO/well, and the optical density of colored solutions was subsequently read at 550 nm in a microplate reader Tecan infinite M200 Pro (Männedorf, Switzerland). The compounds 1–14 were dissolved in DMSO (stock solution at 100 mM) and further diluted to be evaluated at the following concentrations: 0 μM, 1 μM, 10 μM, 20 μM, 40 μM, 60 μM, 80 μM and 100 μM. Results are expressed as % of MTT reduction compared to untreated control conditions. The IC50 values were calculated using the GraphPad Prism 8.0.2 software (San Diego, CA, USA).

[4] = tested on: T24 (Urinary bladder cancer cells); assay: MTT cell survival assay, T24 urinary bladder cancer cells; type: cell-based; conditions: Homo sapiens; MTT test; cells incubated at 37 °C for 48 h (Table 1 footnote); mean ± SEM, n = 3
Protocol: as §1, §2

[5] = tested on: non-tumorigenic HEK-293 (embryonic kidney cells); assay: MTT cell survival assay, non-tumorigenic HEK-293 cells; type: cell-based; conditions: Homo sapiens, HEK293; MTT test; cells incubated at 37 °C for 48 h (Table 1 footnote); mean ± SEM, n = 3
Protocol: as §1, §2

[6] = Half-wave potentials by cyclic voltammetry; type: physicochemical; conditions: for −E^I½ (mV): acetonitrile, platinum electrode, room temperature, negative of the potential; for half-wave potential: signed value
Protocol: Calculation of lipophilicity (ClogP) and molar refractivity (CMR) was assessed by using the ChemBioDraw Ultra 11.0 software and the obtained values are shown in Table 3. Redox potentials of 2-phenylamino-3-acyl-1,4-naphtoquinones 1–14 were measured by cyclic voltammetry at room temperature in acetonitrile as solvent using a platinum electrode and 0.1M tetraethylammonium tetrafluoroborate as the supporting electrolyte.

GSR = assay: RT-qPCR mRNA level of GSR in DU-145 cells; type: cell-based, human; conditions: DU145 cells, 24 h; compound 4 at 1 µM, compound 11 at 6 µM; normalized to B2M, 2^−∆∆Ct vs vehicle (1.00); mean ± SEM
Protocol: (§4) The […] cells were cultured as previously mentioned. […] Afterwards, they were washed with phosphate-buffered saline. The cellular lysate was prepared with E.Z.N.A.®RNA-Lock Reagent (Omega Bio-tek, Norcross, GA, USA) to preserve and immediately stabilize the total RNA for the subsequent gene expression assays. The total RNA isolated from the cells using the E.Z.N.A.®HP Total RNA Isolation Kit (Omega Bio-tek) was reverse-transcribed to cDNA using the AffinityScript QPCR cDNA Synthesis Kit (Agilent Technologies, Santa Clara, CA, USA) and 1000 ng of the RNA sample.
(§5) The cDNA synthesized was employed for qPCR using Brilliant III Ultra-Fast SYBR®Green QPCR Master Mix (Agilent Technologies) in an Mx3000P qPCR System (Agilent Technologies), employing a 96-well plate with 20 μL of PCR reaction per well and 10 pmol each of forward and reverse gene-specific primers. Nine genes were analyzed: B2M, Bcl2, CDC25A, CCN2, GSR, HDAC4, mTOR, TNF, TP53 and their quantitative real-time (qPCR) primer sequences are reported in Table S1 (supplementary material). The relative gene expressions were determined using Beta-2-microglobulin (B2M) as housekeeping, and the delta-delta Ct method (2^−∆∆Ct method) with regard to the vehicle-treated group (i.e., the reference group). Five biological replicates were used from each group (treated and reference group). […]

HDAC4 = assay: RT-qPCR mRNA level of HDAC4 in DU-145 cells; type: cell-based, human; conditions: DU145 cells, 24 h; compound 4 at 1 µM, compound 11 at 6 µM; normalized to B2M, 2^−∆∆Ct vs vehicle (1.00); mean ± SEM
Protocol: as §4, §5

TNF = assay: RT-qPCR mRNA level of TNF in DU-145 cells; type: cell-based, human; conditions: DU145 cells, 24 h; compound 4 at 1 µM, compound 11 at 6 µM; normalized to B2M, 2^−∆∆Ct vs vehicle (1.00); mean ± SEM
CDC25A = assay: RT-qPCR mRNA level of CDC25A in DU-145 cells; type: cell-based, human; conditions: DU145 cells, 24 h; compound 4 at 1 µM, compound 11 at 6 µM; normalized to B2M, 2^−∆∆Ct vs vehicle (1.00); mean ± SEM
Protocol: as §4, §5

CCN2 = assay: RT-qPCR mRNA level of CCN2 in DU-145 cells; type: cell-based, human; conditions: DU145 cells, 24 h; compound 4 at 1 µM, compound 11 at 6 µM; normalized to B2M, 2^−∆∆Ct vs vehicle (1.00); mean ± SEM
Protocol: as §4, §5

TP53 = assay: RT-qPCR mRNA level of TP53 in DU-145 cells; type: cell-based, human; conditions: DU145 cells, 24 h; compound 4 at 1 µM, compound 11 at 6 µM; normalized to B2M, 2^−∆∆Ct vs vehicle (1.00); mean ± SEM
Protocol: as §4, §5

[7] = tested on: DU-145, MCF-7 and T24 cancer cells; assay: Antiproliferative activity over DU-145, MCF-7 and T24 cancer cells; type: cell-based, human; conditions: summary of Table 1 (DU-145, MCF-7, T24)
Protocol: as §1, §3

−E^I½ (mV) [6] [mV]	half-wave potential [6] [mV]	IC50 range over the cancer cell lines [7]	IC50 ([7]; Homo sapiens, read-out: IC50 range over the cancer cell lines) [µM]	Compound	IC50 [1] [µM]	IC50 [2] [µM]	MSI (mean selective index) [3]	IC50 [4] [µM]	IC50 [5] [µM]	Relative expression level (mRNA level) GSR (GSR)	Relative expression level (mRNA level) HDAC4 (HDAC4)	Relative expression level (mRNA level) TNF (TNF)	Relative expression level (mRNA level) CDC25A (CDC25A)	Relative expression level (mRNA level) CCN2 (CCN2)	Relative expression level (mRNA level) TP53 (TP53)
604				COc1ccc(C(=O)C2=C(Nc3ccccc3)C(=O)c3ccccc3C2=O)cc1OC [Compound 7, 2-(Phenylamino)-3-(3,4-dimethoxybenzoyl)naphthalene-1,4-dione]	10.6 ± 0.27	11.9 ± 0.22	6.4	15.2 ± 0.88	79.9 ± 10.4						
770				Cc1ccc(C(=O)C2=C(Nc3ccccc3)C(=O)c3ccccc3C2=O)cc1 [Compound 10, 2-(Phenylamino)-3-(4-methylbenzoyl)naphthalene-1,4-dione]	14.2 ± 0.53	11.1 ± 0.57	5.0	21.5 ± 2.26	78.8 ± 5.53						
552	−552			O=C(C1=C(Nc2ccccc2)C(=O)c2ccccc2C1=O)c1cccs1 [Compound 12]	4.2 ± 0.06	6.97 ± 0.6	3.3	11.7 ± 0.89	24.8 ± 1.41						
595				COc1cc(C(=O)C2=C(Nc3ccccc3)C(=O)c3ccccc3C2=O)ccc1O [Compound 9, 2-(Phenylamino)-3-(4-hydroxy-3-methoxybenzoyl)naphthalene-1,4-dione]	5.81 ± 0.71	12.5 ± 0.55	4.5	13.8 ± 1.87	47.7 ± 3.29						
685	−685			O=C(C1=C(Nc2ccccc2)C(=O)c2ccccc2C1=O)c1ccc[nH]1 [Compound 14, 2-(Phenylamino)-3-(1H-pyrrole-2-carbonyl)naphthalene-1,4-dione]	10.7 ± 0.35	14.5 ± 0.25	0.9	21.7 ± 0.22	13.7 ± 1.36						
690				COc1cc(C(=O)C2=C(Nc3ccccc3)C(=O)c3ccccc3C2=O)cc(OC)c1OC [Compound 8, 2-(Phenylamino)-3-(3,4,5-trimethoxybenzoyl)naphthalene-1,4-dione]	4.88 ± 0.52	11.7 ± 0.29	4.7	7.14 ± 0.2	37.4 ± 1.7						
635	−635			O=C(C1=C(Nc2ccccc2)C(=O)c2ccccc2C1=O)c1ccsc1 [Compound 13, 2-(Phenylamino)-3-(thiophene-3-carbonyl)naphthalene-1,4-dione]	6.37 ± 0.23	8.91 ± 0.82	2.1	13.8 ± 0.58	20.4 ± 2.77						
480		almost devoid of activity		CCCCCCCCCC(=O)C1=C(Nc2ccccc2)C(=O)c2ccccc2C1=O [Compound 2, 2-(Phenylamino)-3-decanoylnaphthalene-1,4-dione]	> 100	> 100	< 0.8	> 100	79.8 ± 9.74						
484		almost devoid of activity		CCCCCCCCCCCC(=O)C1=C(Nc2ccccc2)C(=O)c2ccccc2C1=O [Compound 3, 2-(Phenylamino)-3-dodecanoylnaphthalene-1,4-dione]	> 100	> 100	1.0	> 100	> 100						
				COc1cccc2c1C(=O)c1c(O)c3c(c(O)c1C2=O)C[C@@](O)(C(=O)CO)C[C@@H]3O[C@H]1C[C@H](N)[C@H](O)[C@H](C)O1 [DOX, Doxorubicin, reference compound]	0.33 ± 0.05	0.93 ± 0.06	7.5	0.46 ± 0.08	4.27 ± 0.34						
800				COc1ccc(C(=O)C2=C(Nc3ccccc3)C(=O)c3ccccc3C2=O)cc1 [Compound 6, 2-(Phenylamino)-3-(4-methoxybenzoyl)naphthalene-1,4-dione]	11.8 ± 0.54	19.5 ± 0.95	2.6	13.3 ± 0.44	38.9 ± 3.3						
500				COc1cccc(C(=O)C2=C(Nc3ccccc3)C(=O)c3ccccc3C2=O)c1 [Compound 5, 2-(Phenylamino)-3-(3-methoxybenzoyl)naphthalene-1,4-dione]	6.63 ± 0.13	10.2 ± 0.95	3.2	12 ± 0.37	30.8 ± 4.07						
475			60.9 to 86.7	CCCCCC(=O)C1=C(Nc2ccccc2)C(=O)c2ccccc2C1=O [Compound 1, 2-(Phenylamino)-3-hexanoylnaphthalene-1,4-dione]	62.68 ± 0.53	60.89 ± 0.34	1.1	86.7 ± 2.52	77.3 ± 3.66						

Compound	−E^I½ (mV) [6] [mV]	half-wave potential [6] [mV]	IC50 range over the cancer cell lines [7]	IC50 ([7]; Homo sapiens, read-out: IC50 range over the cancer cell lines) [µM]	IC50 [1] [µM]	IC50 [2] [µM]	MSI (mean selective index) [3]	IC50 [4] [µM]	IC50 [5] [µM]	Relative expression level (mRNA level) GSR (GSR)	Relative expression level (mRNA level) HDAC4 (HDAC4)	Relative expression level (mRNA level) TNF (TNF)	Relative expression level (mRNA level) CDC25A (CDC25A)	Relative expression level (mRNA level) CCN2 (CCN2)	Relative expression level (mRNA level) TP53 (TP53)
O=C(C1=C(Nc2ccccc2)C(=O)c2ccccc2C1=O)c1ccco1 [Compound 11]	578	−578			4.64 ± 0.23	5.45 ± 0.21	13.7	11.7 ± 0.84	> 100	0.94 ± 0.06	0.81 ± 0.07	0.93 ± 0.08	0.90 ± 0.05	0.95 ± 0.09	0.87 ± 0.05
